We go through 14 compounds from patent publication US20230151037A1, “GPR40 AGONISTS” (Kallyope, Inc., priority 2020, published 2023).

As usually defined, the EC50 is the concentration needed to bring the measured effect to its halfway point. A low value points to greater potency.

For one data set, the target named is T1, human GPR40 (Homo sapiens, UniProt O14842).
T1 construct: host or cells: CHO-K1
Briefly: Inositol phosphate accumulation assay (IP1 HTRF) in CHO-K1 cells expressing human GPR40. The class given is cell-based. Particulars: 90 min. How it is done: CHO-K1 cells expressing human GPR40 were purchased from DiscoverX (95-1005C2). HEK293 cells expressing mouse FFAR1 were prepared using a mouse FFAR1 carrying plasmid purchased from OriGene Technologies (MR222997). The cells were transfected using Lipofectamine 2000 using manufacturer instructions and stable cell line was established from a single cell using geneticine selection. Assay ready frozen (ARF) cells were prepared and used throughout the study.
The assay was performed in a 384-well plate format using IP1 assay kit from Cis-Bio. ARF cells expressing FFAR1 (mouse and human) were thawed, washed and then plated in the appropriate medium (F12 based medium for CHO hFFAR1 and DMEM based medium for HEK293 mFFAR1-both were supplemented with 10% FBS and penicillin/streptomycin). 20 μL of 3.5×10^5 cells/mL were plated on a Poly D-Lysine coated 384-well white plate. The cells were then incubated for 16 hr at 37° C./5% CO2. After 16 hr the medium was removed and 15 μL of stimulation buffer containing the test compounds was added to the cells. The plates were then incubated for 90 min at 37° C./5% CO2. 5 μL of detection buffer (prepared as described in the IP-one kit) was added to each well and the plates were incubated at RT for 1 hr.
[…] was measured using ClarioSTAR plate reader, calculating the ratio between emissions at 665 nm and 620 nm (HTRF ratio). HTRF ratio for positive (Max) and negative (Min) controls were used to normalize HTRF data and generate values for % activity. EC50 and Max activity values were determined using a standard 4-parameter fit.
(Time-resolved FRET reads energy transfer from a long-lived donor to a nearby acceptor.)

A short description of data set [1]: In vivo plasma levels in mice after oral gavage, with unbound exposure from plasma protein binding. Particulars: male C57BL/6J mice, 30 mg/kg oral gavage; for Exposure (nM) (unbound), unbound exposure in plasma: total exposure x free fraction; for concentration at 2 h / concentration at 5 h: mouse, plasma, read-out: Exposure (nM), total exposure in plasma. How it is done:
Male C57BL/6J mice 10-12 weeks old were dosed with test article (30 mg/kg) or vehicle by oral gavage. Animals were euthanized with carbon dioxide at 2 h or 5 h post dose. Blood was collected for measurement of plasma concentrations of test article. Unbound exposure was calculated by multiplying the measured total exposure by the free fraction as assessed from plasma protein binding.
Plasma protein binding to isotonic phosphate buffer (PBS) containing 10% C57 BL/6 mouse plasma was determined using equilibrium dialysis of plasma spiked with test article (2 μM) against a dialysis buffer (100 mM sodium phosphate and 150 mM NaCl). At the end of the dialysis (4 hr), aliquots of the plasma and buffer were processed by protein precipitation for LC-MS/MS analysis to quantitate the test article.
Results for exemplary compounds (total exposure in plasma and unbound exposure in plasma; ratio of EC50 to unbound exposure in plasma) are shown in Table 2.

T1 sequence (O14842 whole entry): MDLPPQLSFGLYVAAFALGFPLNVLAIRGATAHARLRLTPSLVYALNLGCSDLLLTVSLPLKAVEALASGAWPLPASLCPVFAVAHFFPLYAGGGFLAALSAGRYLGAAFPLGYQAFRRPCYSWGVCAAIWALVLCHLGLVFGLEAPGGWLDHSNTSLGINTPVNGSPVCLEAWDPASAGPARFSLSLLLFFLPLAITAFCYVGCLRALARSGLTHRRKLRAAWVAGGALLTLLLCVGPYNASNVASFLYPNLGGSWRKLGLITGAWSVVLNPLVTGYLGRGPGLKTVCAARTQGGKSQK

At human GPR40, `COc1cc(-c2ccc(COc3cccc(C(CP(C)(=O)O)C4CC4)c3)cc2CN(C(C)C)C(C)C)c(F)cn1` (single isomer, unassigned) [Compound 13, (2-cyclopropyl-2-(3-((3-((diisopropylamino)methyl)-4-(5-fluoro-2-methoxypyridin-4-yl)benzyl)oxy)phenyl)ethyl)(methyl)phosphinic acid] registered an EC50 of 50 to 250 nM. Also, in data set [1] (2 h post-dose), the “Exposure (nM) (unbound), unbound exposure in plasma” value (“Exposure (nM) (unbound)” below) was 1.2 nM and the concentration at 2 h is 294 nM. Consider `COc1cc(-c2ccc(COc3cccc([C@@H](CP(C)(=O)O)C4CC4)c3)cc2[C@@H](OC)C(C)(C)C)c(F)cn1` [Compound 25, ((S)-2-cyclopropyl-2-(3-((4-(5-fluoro-2-methoxypyridin-4-yl)-3-((S)-1-methoxy-2,2-dimethylpropyl)benzyl)oxy)phenyl)ethyl)(methyl)phosphinic acid], for which, at human GPR40, the EC50 was at most 50 nM. For the same compound, in data set [1] (2 h post-dose), the “Exposure (nM) (unbound)” value is recorded as 1.1 nM and the concentration at 2 h is 1840 nM.

At human GPR40, `COc1cccc(-c2ccc(COc3cccc([C@@H](CP(C)(=O)O)C4CC4)c3)cc2[C@@H](OC)C(C)(C)C)c1` [Compound 29, ((S)-2-cyclopropyl-2-(3-((3′-methoxy-2-((S)-1-methoxy-2,2-dimethylpropyl)-[1,1′-biphenyl]-4-yl)methoxy)phenyl)ethyl)(methyl)phosphinic acid] had an EC50 of at most 50 nM. In data set [1] (5 h post-dose), the “Exposure (nM) (unbound)” value worked out at 0.06 nM and the concentration at 5 h is 140 nM. With `COc1ccc(F)c(-c2ccc(COc3cccc([C@@H](CP(C)(=O)O)C4CC4)c3)cc2[C@@H](OC)C(C)(C)C)c1` [Compound 24, ((S)-2-cyclopropyl-2-(3-((2′-fluoro-5′-methoxy-2-((S)-1-methoxy-2,2-dimethylpropyl)-[1,1′-biphenyl]-4-yl)methoxy)phenyl)ethyl)(methyl)phosphinic acid], on human GPR40, the concentration giving a half-maximal response (EC50) was at most 50 nM. Moreover, in data set [1] (5 h post-dose), the “Exposure (nM) (unbound)” value is 0.03 nM and the concentration at 5 h turned out to be 145 nM. On human GPR40, `COc1cc(-c2ccc(COc3cccc(C(C4CC4)C(C)(C)P(=O)(O)O)c3)cc2CN(C(C)C)C(C)C)c(F)cn1` (stereo not shown) [Compound 22, (1-cyclopropyl-1-(3-((3-((diisopropylamino)methyl)-4-(5-fluoro-2-methoxypyridin-4-yl)benzyl)oxy)phenyl)-2-methylpropan-2-yl)phosphonic acid] returned an EC50 above 1000 nM. `COc1cc(-c2ccc(COc3cccc(C(CS(=O)(=O)O)C4CC4)c3)cc2CN(C(C)C)C(C)C)c(F)cn1` (single isomer, unassigned) [Compound 14, 2-cyclopropyl-2-(3-((3-((diisopropylamino)methyl)-4-(5-fluoro-2-methoxypyridin-4-yl)benzyl)oxy)phenyl)ethanesulfonic acid] returned an EC50 at human GPR40 above 1000 nM. On the same count and under the same terms, next, `COc1cc(-c2ccc(OCc3cccc(C(CP(=O)(O)O)C4CC4)c3)cc2CN(C(C)C)C(C)C)c(F)cn1` (stereo not shown) [Compound 9, (2-cyclopropyl-2-(3-((3-((diisopropylamino)methyl)-4-(5-fluoro-2-methoxypyridin-4-yl)phenoxy)methyl)phenyl)ethyl)phosphonic acid]: above 1000 nM; `COc1cc(-c2ccc(COc3cccc(C(C)CP(C)(=O)O)c3)cc2CN(C(C)C)C(C)C)c(F)cn1` (single isomer, unassigned) [Compound 35, (2-(3-((3-((diisopropylamino)methyl)-4-(5-fluoro-2-methoxypyridin-4-yl)benzyl)oxy)phenyl)propyl)(methyl)phosphinic acid]: 50 to 250 nM.

Consider `COc1cc(-c2ccc(COc3cccc(C(CP(C)(=O)O)C4CC4)c3)c(CN(C(C)C)C(C)C)c2)c(F)cn1` (stereo not shown) [Compound 16, (2-cyclopropyl-2-(3-((2-((diisopropylamino)methyl)-4-(5-fluoro-2-methoxypyridin-4-yl)benzyl)oxy)phenyl)ethyl)(methyl)phosphinic acid], for which, at human GPR40, the EC50 was above 1000 nM. Take `COc1cc(-c2ccc(COc3cccc(C(C)CP(C)(=O)O)c3)cc2CN(C(C)C)C(C)C)c(F)cn1` (single isomer, unassigned) [Compound 36, (2-(3-((3-((diisopropylamino)methyl)-4-(5-fluoro-2-methoxypyridin-4-yl)benzyl)oxy)phenyl)propyl)(methyl)phosphinic acid]: the EC50 at human GPR40 was above 1000 nM.

Consider `COc1cc(-c2ccc(COc3cccc(C(C4CC4)C(C)P(=O)(O)OC)c3)cc2CN(C(C)C)C(C)C)c(F)cn1` (stereo not shown) [Compound 7, methyl hydrogen (1-cyclopropyl-1-(3-((3-((diisopropylamino)methyl)-4-(5-fluoro-2-methoxypyridin-4-yl)benzyl)oxy)phenyl)propan-2-yl)phosphonate], for which the EC50 at human GPR40 was above 1000 nM. Consider `COc1cc(-c2ccc(COc3cccc(C(CP(=O)(O)OC)C4CC4)c3)cc2CN(C(C)C)C(C)C)c(F)cn1` (stereo not shown) [Compound 5, methyl hydrogen (2-cyclopropyl-2-(3-((3-((diisopropylamino)methyl)-4-(5-fluoro-2-methoxypyridin-4-yl)benzyl)oxy)phenyl)ethyl)phosphonate], for which the EC50 at human GPR40 was above 1000 nM. Turning to `CCP(=O)(O)CC(c1cccc(OCc2ccc(-c3cc(OC)ncc3F)c(CN(C(C)C)C(C)C)c2)c1)C1CC1` (single isomer, unassigned) [Compound 19, (2-cyclopropyl-2-(3-((3-((diisopropylamino)methyl)-4-(5-fluoro-2-methoxypyridin-4-yl)benzyl)oxy)phenyl)ethyl)(ethyl)phosphinic acid], on human GPR40, the EC50 was above 1000 nM. As for `COc1cccc(-c2ccc(COc3cc([C@@H](CP(C)(=O)O)C4CC4)ccn3)cc2[C@@H](OC)C(C)(C)C)c1` [Compound 30, ((S)-2-cyclopropyl-2-(2-((3′-methoxy-2-((S)-1-methoxy-2,2-dimethylpropyl)-[1,1′-biphenyl]-4-yl)methoxy)pyridin-4-yl)ethyl)(methyl)phosphinic acid], on human GPR40, the EC50 was at most 50 nM.
